The values that follow come from ChEMBL document CHEMBL4819138, “Promising anti-SARS-CoV-2 drugs by effective dual targeting against the viral and host proteases” (Bioorg Med Chem Lett, 2021).

Experiment [1] addresses Replicase polyprotein 1ab (Severe acute respiratory syndrome coronavirus 2) (UniProt P0DTD1). Put plainly: Inhibition of SARS-CoV-2 papain-like protease at 100 microg/ml relative to control. To be noted: dose 100.0 µg/ml.
The next experiment has as its system SARS-CoV-2. Put plainly: Antiviral activity against SARS-CoV-2 NRC-03-nhCoV strain infected in Vero E6 cells. The format is functional, organism-based. As to conditions: Severe acute respiratory syndrome coronavirus 2, NRC-03-nhCoV, Vero C1008.
For another experiment, the system named is Fibroblast. The experiment is described as follows: Cytotoxicity against human fibroblasts cells assessed as cell growth inhibition by MTT assay. The format is cell-based.
The target in experiment [2] is Replicase polyprotein 1ab (Severe acute respiratory syndrome coronavirus 2) (UniProt P0DTD1). The experiment is described as follows: Inhibition of SARS-CoV-2 main protease at 100 microg/ml relative to control. As to conditions: dose 100.0 µg/ml.

`O=C(CSc1nnc2c(n1)[nH]c1ccccc12)Nc1cccc(S(=O)(=O)N2CCOCC2)c1`: the inhibition (in general, the share of the control response that was lost under treatment) in experiment [1] was greater than 40%. `COc1cc(C(NC2=NC(=O)C(CC(=O)Nc3ccc(C(=O)O)cc3)S2)c2c(O)[nH]c(=O)[nH]c2=O)ccc1O` (configuration not stated): the values for the inhibition in experiment [1] and in experiment [2] were 56.4% and 31%, respectively. The figures for the half-maximal inhibitory concentration (IC50) in the experiment on SARS-CoV-2 and in the experiment with Fibroblast were 770 nM and 1670 nM, respectively. In experiment [1], `CCOC(=O)C(Cc1c[nH]c2ccccc12)NC(=O)CCC(=O)Nc1ccc(S(N)(=O)=O)cc1` (configuration not stated) returned an inhibition greater than 40%. For the compound `O=C(CSc1nnc(NC2CC2)s1)Nc1ccccc1C(=O)Nc1ccc2c(c1)OCO2`, the inhibition in experiment [1] was greater than 40%; in experiment [2], 26.4%. As for `COc1ccc(/C=C\C(=O)NC(=S)Nc2ccc(S(=O)(=O)NC(N)=O)cc2)cc1OC`, the inhibition in experiment [1] is greater than 40%.

Regarding `N=C(N/N=C/c1ccccc1O)c1nonc1NCNc1nonc1C(=N)N/N=C/c1ccccc1O`, the IC50 (as a rule, the concentration at which inhibition is half-maximal) in the experiment on SARS-CoV-2 stood at 110 nM; in the experiment with Fibroblast, 410 nM. In turn, `COc1cc(CC(C)NCc2cc(NC(=O)c3ccccn3)cc(C(=O)N(C)C)c2)ccc1O` (configuration not stated) had an inhibition in experiment [1] greater than 40%.
